Values of other authors in patent publication US20090099301A1, “MOLECULAR IMPRINTINGS FOR RECOGNITION IN AQUEOUS MEDIA, METHODS FOR PREPARING SAME AND USES THEREOF” (POLYINTELL, priority 2006, published 2009).

Conditions: basic medium (pH 11)

solubility in water: insoluble
Structure (SMILES): CC(C)NCC(O)COc1cccc2ccccc12 (stereo not shown) [propranolol]
